Experimental data taken from patent US20150121570A1, “GENE […] DROUGHT STRESS TOLERANCE AND T[…] WITH THE SAME” (priority 2013, published 2015).

Experiments:
Type in all cases: in vivo, Arabidopsis thaliana
[1] = system: stomata of mature leaves of wild-type and atamdr mutant plants; experiment: ABA-induced stomatal closure (stomatal aperture measurement); details: 10 μm ABA for 2 h; for stomatal aperture (the ratio of width to length): 4-week-old leaves
Protocol: (§1) FIGS. 4a to 4c represent stomatal aperture and H2O2 production of wild-type, atamdr plants in response to different concentrations of ABA. […] Light-grown, 4-week-old mature leaves of wild-type and atamdr plants were incubated in stomatal opening solution for 2 h and transferred to solutions containing the 10 μM ABA for 2 h. Stomata on the abaxial surface were observed by light microscopy. […] Leaves from wild-type, atamdr plants were treated with 0 or 100 μM ABA for 2 h and transferred to 100 μg/mL DAB (3,3′-diaminobenzidine-4HCl) solution overnight. The presence and level of H2O2 in the leaves were visualized as a dark brown color.
Mature leaves of light-grown, 4-week-old wild-type and atamdr mutant plants were used for the observation of mature stomata. Detached leaves were incubated in stomatal opening solution (10 mM MES-KOH, […] CaCl2, 10 mM KCl) for 2 h and then transferred to stomatal opening solution supplemented with 0 or 10 μM ABA for 2 h. Subsequently, epidermal strips were mounted on glass slides and observed with a light microscope.
Mature leaves of light-grown, 4-week-old wild-type and atamdr mutant plants were detached and incubated in stomatal opening solution and then transferred to stomatal opening solution supplemented with various concentrations of ABA (0 and 10 μM) for 2 h. […] Stomatal aperture of wild-type plants treated with 10 μm ABA was approximately 0.09 which was 2-fold closed than that of mutant, while stomatal aperture of atamdr mutant treated with 10 μm ABA was approximately 0.175, which was 1.94-fold compared to that of wild-type plants.

[2] = system: mature leaves of wild-type and atamdr plants; experiment: ABA-induced H2O2 production analyzed by DAB staining; details: 0 or 100 μM ABA
Protocol: as §1
To investigate the accumulation of H2O2, light-grown, 4-week-old mature leaves of wild-type (WT), atamdr plants were incubated in stomatal opening solution for 2 h and treated with 0 or 100 μM ABA. Leaves were transferred to 100 μg/mL DAB (3,3′-diaminobenzidine-4HCl) solution overnight, and washed and fixed by 96% ethanol. Leaves were observed after complete chlorosis (Luis David Maldonado-Bonilla et al.; Eur J Plant Pathol. 121:439449, 2008).
To investigate the accumulation of H2O2, light-grown, 4-week-old mature leaves of wild-type and atamdr plants were treated with 0 or 100 μM ABA, and stained with 100 ng/mL DAB (3,3′-diaminobenzidine-4HCl) solution in dark.

[3] = system: AtAIRP2 gene expression; experiment: Gene expression after ABA treatment by RT-PCR; details: atamdr mutant, 300 μM ABA hormone, 1 hour and 3 hours
Protocol: FIGS. 2a to 2d represent the expression patterns of AtAMDR in response to various abiotic stress conditions. Total RNA was prepared from light-grown, 7-day-old Arabidopsis seedlings, which had been treated with drought (FIG. 2a), cold (FIG. 2b), high salinity (300 mM NaCl) (FIG. 2c) or 100 μM ABA (FIG. 2d). Induction patterns of AtAMDR were investigated by RT-PCR. RD29A was used as representative control gene for drought, cold and salt stress, and Rab18 was used as control gene for ABA.
Total RNA was prepared from 7-day-old Arabidopsis seedlings, which had been treated with drought (1-2 h), cold (4° C. for 6-12 h), high salinity (300 mM NaCl for 1-3 h) or 100 μM ABA (1-3 h). Induction patterns of AtAMDR were investigated by RT-PCR.
In order to determine expressions of the AtAMDR gene to drought stress, the wild type Arabidopsis thaliana seedlings which were grown on medium for 2 weeks were exposed in the air, and sampled after 1 hour and 2 hours. In order to determine expressions of the AtAMDR gene to salt stress, the wild type Arabidopsis thaliana seedlings which were grown on medium for 2 weeks were treated with 300 mM sodium chloride, and sampled after 1 hour and 3 hours. […]
The AtAIRP2 gene expressions in various abiotic stresses were analyzed by RT-PCR. […]

For `CC1=CC(=O)CC(C)(C)[C@@]1(O)/C=C/C(C)=C\C(=O)O` [ABA, abscisic acid], the “stomatal aperture of atamdr mutant compared to that of wild-type plants” value [1] was 1.94 fold, the “stomatal aperture (the ratio of width to length)” value ([1]; atamdr mutant) was “approximately 0.175” and the “stomatal aperture (the ratio of width to length)” value ([1]; wild-type plants) was “approximately 0.09”. For the same compound, the “accumulation of H2O2” value ([2]; atamdr leaves) was “significantly delayed”, the “accumulation of H2O2” value ([2]; wild-type leaves) was “drastically arisen” and the AtAIRP2 gene expression [3] was “not affected”.
